Data: US12427134B2, “Methods of reducing the risk of cardiovascular events in a subject with atrial fibrillation and/or atrial flutter” (priority 2019, dated 2025)

Test system: hypertriglyceridemic patients with cardiovascular disease or at high risk for cardiovascular disease
Assay: REDUCE-IT: treatment-emergent adverse events and serious adverse events (safety population)
Procedure: Specification of Variables and Procedures: Safety assessments included adverse events, clinical laboratory measurements (chemistry, hematology), 12-lead ECGs, vital signs (systolic and diastolic blood pressure, heart rate, respiratory rate, and body temperature), weight, waist circumference, and physical examinations as per Study Procedures in Table 1. […] All laboratory test results were evaluated by the investigator as to their clinical significance. Any observations at physical examinations or laboratory values considered by the investigator to be clinically significant were considered an adverse event.
An adverse event can therefore be any unfavorable and/or unintended sign (including an abnormal laboratory finding), symptom, or disease temporally associated with the use of an investigational medication product, whether or not related to the investigational medication product. All adverse events, including observed or volunteered problems, complaints, or symptoms, were recorded on the appropriate CRF. Each adverse event was evaluated for duration, intensity, and causal relationship with the study medication or other factors.
Adverse events, which included clinical laboratory test variables, were monitored from the time of informed consent until study participation was complete. Patients were instructed to report any adverse event that they experienced to the investigator. Beginning with Visit 2, investigators assessed for adverse events at each visit and recorded the event on the appropriate adverse event CRF.
Causality Assessment: The relationship of an adverse event to the administration of the study drug was assessed according to the following definitions: • No (unrelated, not related, no relation)—The time course between the administration of study drug and the occurrence or worsening of the adverse event rules out a causal relationship and another cause (concomitant drugs, therapies, complications, etc.) is suspected. • Yes (related, probably related, possibly related)—The time course between the administration of study drug and the occurrence or worsening of the adverse event is consistent with a causal relationship and no other cause (concomitant drugs, therapies, complications, etc.) can be identified.
Serious Adverse Events: A serious adverse event (SAE) is defined as an adverse event that meets any of the following criteria: • Results in death; • Is life-threatening—The term “life-threatening” in the definition of “serious” refers to an event in which the patient was at risk of death at the time of the event. […] Important medical events that may not result in death, be life threatening, or require hospitalization were considered an SAE when, based upon appropriate medical judgment, they may have jeopardized the patient and may have required medical or surgical intervention to prevent one of the outcomes listed above.
Analysis of Safety: All analyses of safety were conducted on the safety population, which was defined as all randomized patients. The safety assessment was based on the frequency of adverse events, physical exams, vital signs and safety laboratory tests. AEs with new onset during the study between the initiation of study drug and 30 days after the last dose of study drug for each patient was considered treatment-emergent (TEAEs). This included any AE with onset prior to initiation of study drug and increased severity after the treatment initiation.
This included overall incidence rates (regardless of severity and relationship to study drug), and incidence rates for moderate or severe adverse events. A summary of SAEs and adverse events leading to early discontinuation (for ≥30 days) were presented through data listings. Patients who restarted study drug were included in the summary of AEs leading to discontinuation.

## CC/C=C\C/C=C\C/C=C\C/C=C\C/C=C\CCCC(=O)OCC [AMR101, eicosapentaenoic acid ethyl ester]
Region Westernized (N = 2906)
  TEAE: Respiratory, thoracic, and mediastinal disorders, %: (30.9) %
Safety population
  Diarrhea leading to study drug withdrawal, patients: 1.1%
  Nausea leading to study drug withdrawal, patients: 0.6%
  Patients with SAE leading to study drug withdrawal: 2.2%
  Patients with TEAE leading to study drug withdrawal: 7.9%
  Patients with at least one SAE: 30.6%
  Patients with at least one TEAE: 81.8%
  Patients with serious TEAE leading to death: 2.3%
  SAE acute kidney injury, patients: 1.1
  SAE angina pectoris, patients: 1.2%
  SAE chest pain, patients: 1.6%
  SAE class GI disorders, patients: 4.7%
  SAE class cardiac disorders, patients: 4.7%
  SAE class musculoskeletal and connective tissue disorders, patients: 4.6%
  SAE class neoplasms benign, malignant, and unspecified, patients: 5.4%
  SAE non-cardiac chest pain, patients: 1.2%
  SAE osteoarthritis, patients: 2.0%
  Serious TEAE: 1252 (30.6%) n (%)
  Serious TEAE Leading to Death: 94 (2.3%) n (%)
  Serious TEAE Leading to Withdrawal of Study Drug: 88 (2.2%) n (%)
  Serious TEAE: Pneumonia: 105 (2.6%) n (%)
  Serious adverse event pneumonia, patients: 2.6%
  Serious anemia, patients: 0.5%
  Severe TEAE acute kidney injury, patients: 0.7%
  Severe TEAE chest pain, patients: 0.7%
  Severe TEAE osteoarthritis, patients: 0.8%
  Severe TEAE pneumonia, patients: 1.5%
  Severe TEAE, patients with at least one: 19.7%
  Study drug-related SAE, patients with at least one: 0.2%
  Study drug-related TEAE class GI disorders, patients: 7.4%
  Study drug-related TEAE diarrhea, patients: 2.7%
  Study drug-related TEAE leading to study drug withdrawal, patients: 3.4%
  Study drug-related TEAE, patients with at least one: 12.6%
  Study drug-related diarrhea leading to study drug withdrawal, patients: 1.0%
  TEAE Leading to Withdrawal of Study Drug: 321 (7.9%) n (%)
  TEAE anemia, patients: 4.7%
  TEAE atrial fibrillation, patients: 5.3%
  TEAE class GI disorders leading to study drug withdrawal, patients: 3.6%
  TEAE class general disorders and administration site conditions, patients: 25.2%
  TEAE class musculoskeletal and connective tissue disorders, patients: 35.9%
  TEAE class nervous system disorders, patients: 24.6%
  TEAE constipation, patients: 5.4%
  TEAE diarrhea, patients: 9%
  TEAE gastrointestinal disorders, patients: 33.0%
  TEAE of special interest: abnormal glucose control, patients: 15.2%
  TEAE of special interest: hepatic disorders, patients: 5.4%
  TEAE peripheral edema, patients: 6.5%
  TEAE: Anemia: 191 (4.7%) n (%)
  TEAE: Angina pectoris: 200 (4.9%) n (%)
  TEAE: Arthralgia: 313 (7.7%) n (%)
  TEAE: Atrial fibrillation: 215 (5.3%) n (%)
  TEAE: Back pain: 335 (8.2%) n (%)
  TEAE: Bronchitis: 306 (7.5%) n (%)
  TEAE: Cataract: 233 (5.7%) n (%)
  TEAE: Chest pain: 273 (6.7%) n (%)
  TEAE: Constipation: 221 (5.4%) n (%)
  TEAE: Cough: 241 (5.9%) n (%)
  TEAE: Diarrhea: 367 (9.0%) n (%)
  TEAE: Dizziness: 235 (5.7%) n (%)
  TEAE: Dyspnea: 254 (6.2%) n (%)
  TEAE: Fatigue: 228 (5.6%) n (%)
  TEAE: Gastroesophageal Reflux Disease: 124 (3.0%) n (%)
  TEAE: Gastrointestinal disorders: 1350 (33.0%) n (%)
  TEAE: Hypertension: 320 (7.8%) n (%)
  TEAE: Influenza: 263 (6.4%) n (%)
  TEAE: Nasopharyngitis: 314 (7.7%) n (%)
  TEAE: Nausea: 190 (4.6%) n (%)
  TEAE: Osteoarthritis: 241 (5.9%) n (%)
  TEAE: Pain in extremity: 235 (5.7%) n (%)
  TEAE: Peripheral edema: 267 (6.5%) n (%)
  TEAE: Pneumonia: 263 (6.4%) n (%)
  TEAE: Upper respiratory tract infection: 312 (7.6%) n (%)
  TEAE: Urinary tract infection: 253 (6.2%) n (%)
Safety population N = 4089, P-value 0.3180
  TEAE of special interest: Hepatic disorders, %: (5.4) %
Safety population N = 4089, P-value 0.8059
  TEAE of special interest: Abnormal glucose control, %: (15.2) %
Safety population, N = 4089
  CEC-adjudicated CV deaths (excluding deaths with undetermined cause), %: (3.4) %
  CEC-adjudicated Deaths with undetermined cause, %: (0.9) %
  CEC-adjudicated Non-CV deaths, %: (2.4) %
  CEC-adjudicated deaths: Total mortality, %: (6.7) %
  Patients with at least 1 TEAE, %: (81.8) %
  Patients with at least 1 serious TEAE, % patients: (30.6) %
  Patients with at least 1 serious TEAE, n patients: 1252
  Patients with at least 1 severe TEAE, %: (19.7) %
  Patients with at least 1 study drug-related TEAE leading to study drug withdrawal, % patients: (3.4) %
  Patients with at least 1 study drug-related TEAE leading to study drug withdrawal, n patients: 139
  Patients with at least 1 study drug-related TEAE, %: (12.6) %
  Serious TEAE Leading to Death, %: (2.3) %
  Serious TEAE Leading to Withdrawal of Study Drug, %: (2.2) %
  Serious TEAE, %: (30.6) %
  Serious adverse event - Acute kidney injury, % patients: (1.1) %
  Serious adverse event - Acute kidney injury, n patients: 47
  Serious adverse event - Acute respiratory failure, % patients: (0.5) %
  Serious adverse event - Acute respiratory failure, n patients: 19
  Serious adverse event - Anemia, % patients: (0.5) %
